Eight compounds from patent US12636319B2, “Pharmaceutical composition for preventing or treating atopic disease containing Akkermansia muciniphila strain” (ENTEROBIOME INC., priority 2020, dated 2026) can be followed below.

Values after ≈ are worked out from the molar mass of the structure shown.

Test [1] concerns Bacteroides thetiotaomicron ATCC 29741. The test is described as follows: MIC by CLSI broth microdilution, QC strain. Type of test: cell-based. For orientation: In broth dilution the organism is exposed to a series of concentrations in liquid medium.
For test [2], the system named is Akkermansia muciniphila ATCC BAA-835. In words: MIC by CLSI broth microdilution, type strain. The format is cell-based. The following applies: ATCCBAA835, test strain ATCC BAA-835.
The subject of test [3] is Akkermansia muciniphila EB-AMDK19. The test is described as follows: MIC by CLSI broth microdilution, isolated strain. The format is cell-based. The following applies: EBAMDK19, test strain EB-AMDK19.
The subject of test [4] is DNCB-induced atopic dermatitis in NC/Nga mice. The test is described as follows: Dermatitis score (modified SCORAD) in DNCB-induced atopic dermatitis. Type of test: in vivo, mouse. The following applies: week 6, compared to the atopic dermatitis-induced group; oral daily. The method, then: (§1) The Akkermansia muciniphila ATCC BAA-835 strain and Akkermansia muciniphila EB-AMDK19 live bacteria used in this experiment were prepared at a concentration of 1×10^8 CFU/150 μl PBS (25% glycerol, 0.05% cysteine/PBS).
(§2) To observe atopic dermatitis lesions, 6-week-old NC/Nga mice (weighed about 21 to 25 g, SLC, Inc., Japan) were purchased from Daehan Biolink Co., Ltd. (Chungbuk, Korea). Animal tests were carried out in accordance with the Animal use and Care Protocol of the Institutional Animal Care and Use Committee (IACUC). The animals were acclimated for one week, and then raised for 9 weeks at a constant temperature of 22° C. and a relative humidity of 50 to 60% with a 12-hr light/12-hr dark cycle.
(§3) The backs of 6-week-old NC/Nga mice were shaved clean, and then left to stand for 24 hours so that fine wounds of the skin were healed. […]
After atopic dermatitis was induced by DNCB, treatment was performed by administering a preparation containing each of dexamethasone (DEX), the ATCC BAA-835 strain and the EB-AMDK19 strain for 6 weeks. […] Skin dryness, edema, erythema/hemorrhage, and erosion/excoriation were scored as follows: no symptoms=0, weak symptoms=1, moderate symptoms=2, and severe symptoms=3.

The test system is the same in test [5]. In words: Ear edema (ear thickness) in DNCB-induced atopic dermatitis. The following applies: at 6 weeks; normal group 0.55 mm, atopic dermatitis-induced group 1.50 mm. Type of test: in vivo, mouse. The method, then: as §1, §2
(§4) The backs of 6-week-old NC/Nga mice were shaved clean, and then left to stand for 24 hours so that fine wounds of the skin were healed. 1% 2,4-dinitrochlorobenzene (DNCB) solution (Sigma-Aldrich Korea) was applied to the back of each mouse twice a week for 3 weeks to induce an immune response, and then 0.5% DNCB solution was applied twice a week to induce contact dermatitis. […]
After severe atopic dermatitis was induced, the mice after completion of the experiment were sacrificed by anesthetizing with CO2, and then the degree of edema of both ears was measured by the velocity transformation technique using a thickness gauge (Digimatic thickness gauge, 547-301, Mitutoyo, Japan).

Test [6] shares this test system. In words: Scratching frequency in DNCB-induced atopic dermatitis. The following applies: scratching for 10 minutes, day before end; compared to the atopic dermatitis-induced group. Type of test: in vivo, mouse. As to the method:
as §1, §2, §4
The day before the end of the experiment, the frequency of scratching the affected area due to itching was measured. For measurement of the frequency of scratching, each mouse was acclimated for 10 minutes, and then the frequency of scratching for 10 minutes was measured using a counter.

Test [7] shares this test system. In words: Spleen weight in DNCB-induced atopic dermatitis. The following applies: end of experiment; compared to the atopic dermatitis-induced group. The format is in vivo, mouse. The method, then:
as §1, §2, §3
Thus, the weight of the spleen was measured to observe the effect of the composition for preventing atopic dermatitis on the immune organs of NC/Nga mice with atopic dermatitis induced by DNCB. […] The collected spleen tissues were washed with physiological saline, and then the sizes thereof were visually observed and the weights thereof were measured using a microbalance.

A further test relates to IgE. In words: Serum IgE concentration by ELISA. The format is in vivo, mouse. As to the method: as §1, §2, §4
At the end of the experiment, each of the mice was anesthetized with CO2 and blood was collected by cardiac puncture. The collected blood was centrifuged at 10,000 rpm for 5 minutes to separate the serum, and the serum IgE concentration was measured. […]

The next test has as its system Th2/Th1 cytokines. The test is described as follows: Ratio of Th2/Th1 serum cytokines. The format is in vivo, mouse. The following applies: compared to the atopic dermatitis-induced group. The method, then: as §1
To observe atopic dermatitis lesions, 6-week-old NC/Nga mice (weighed about 21 to 25 g, SLC, Inc., Japan) were purchased from Daehan Biolink Co., Ltd. (Chungbuk, Korea). Animal tests were carried out in accordance with the Animal use and Care Protocol of the Institutional Animal Care and Use Committee (IACUC). The animals were acclimated for one week, and then raised for 9 weeks at a constant temperature of 22° C. and a relative humidity of 50 to 60% with a 12-hr light/12-hr dark cycle. […]
At the end of the experiment, the mice were anesthetized with CO2, and blood was collected by cardiac puncture. […] The concentrations of IL-4, IL-12, IFN-γ and IL-6 cytokines were measured using an ELISA kit (Invitrogen, CA, USA), and the results of the measurement are shown in FIGS. 17(A), 17(B), 18(A), and 18(B).
From an immunological point of view, atopic dermatitis is a disease caused by an excessive imbalance between Th1 and Th2 immune responses. Thus, the cytokine concentrations measured as described above were expressed as the ratio of Th2/Th1 cytokines, and the results are shown in FIGS. 19(A), 19(B), 20(A), and 20(B).

Broadly, the MIC is the smallest concentration in the dilution series that meets the test's criterion for growth inhibition. A low value points to inhibition by little substance. On to Piperacillin-tazobactam [PTZ], for which the MIC in test [1] (QC strain ATCC 29741, broth microdilution, CLSI) was 8/4.
For the compound `COc1c(N2C[C@@H]3CCCN[C@@H]3C2)c(F)cc2c(=O)c(C(=O)O)cn(C3CC3)c12` [MXF, moxifloxacin], the MIC in [1] (Bacteroides, ATCC29741) is 8 µg/mL (≈ 19.9 µM); in test [2] it was more than 32 µg/mL; in [3], more than 32 µg/mL.
`O=C(N[C@H](CO)[C@H](O)c1ccc([N+](=O)[O-])cc1)C(Cl)Cl` [CHL, chloramphenicol]: the MIC in [1] (Bacteroides, ATCC29741) was found to be 8 µg/mL (≈ 24.8 µM); in [2], 4 µg/mL (≈ 12.4 µM); in test [3], 4 µg/mL (≈ 12.4 µM).
Turning to `CO/N=C(\C(=O)N[C@@H]1C(=O)N2C(C(=O)O)=CCS[C@H]12)c1csc(N)n1` [CTZ, ceftizoxime], the MIC stood at 16 µg/mL (≈ 41.7 µM) in test [1] (Bacteroides, ATCC29741); 2 µg/mL (≈ 5.22 µM) in test [2]; 1 µg/mL (≈ 2.61 µM) in [3].
With `Cc1ncc([N+](=O)[O-])n1CCO` [MTZ, metronidazole], the MIC in [1] (Bacteroides, ATCC29741) was 2 µg/mL (≈ 11.7 µM); in test [2] it was not above 0.25 µg/mL; in test [3] it was 0.5 µg/mL (≈ 2.92 µM).
With `C[C@@H]1C[C@H]2[C@@H]3CCC4=CC(=O)C=C[C@]4(C)[C@@]3(F)[C@@H](O)C[C@]2(C)[C@@]1(O)C(=O)CO` [DEX, dexamethasone], in test [4], the “decrease in dermatitis score” value worked out at 38.4%. Further, the ear edema in test [5] was determined as 1.00 mm. Also, the “decrease in scratching frequency” value in [6] was “about 59.4%”. In addition, the “decrease in spleen weight” value in [7] stood at 23.3%. Also, the “serum IgE decrease” value in the test with IgE (compared to the atopic dermatitis-induced group) amounted to 40.70%. The “serum IgE concentration” value in the test on IgE (end of experiment, ELISA) came out at 11891.34 ng/mL. Besides, in the test on Th2/Th1 cytokines, the “decrease of IL-6/IFN-γ ratio” value is listed as 12.7% and the “decrease of IL-6/IL-12 ratio” value is 34.5%.
Take `C[C@@H](O)[C@H]1C(=O)N2C(C(=O)O)=C(S[C@@H]3CN[C@H](C(=O)N(C)C)C3)[C@H](C)[C@H]12` [MEM, meropenem]: the MIC in test [1] (Bacteroides, ATCC29741) is 0.5 µg/mL (≈ 1.3 µM); in [2], 1 µg/mL (≈ 2.61 µM); in test [3] it was 0.5 µg/mL (≈ 1.3 µM).
For `CCC[C@@H]1C[C@@H](C(=O)N[C@@H]([C@H]2O[C@H](SC)[C@H](O)[C@@H](O)[C@H]2O)[C@H](C)Cl)N(C)C1` [CLI, clindamycin], the MIC in test [2] is not above 0.125 µg/mL; in test [3] it was 4 µg/mL (≈ 9.41 µM).
